Results on one compound are retold here after patent publication EP4271680B1, “GOLD (I) COMPLEXES WITH FLUORINATED N-HETEROCYCLIC CARBENE LIGANDS AND USE THEREOF AS THERAPEUTIC AGENTS” (priority 2020, dated 2022).

The subject of series [1] is lignée cellulaire Thp1. The series can be described thus: Cytotoxicity by MTT test on Thp1 cell line. In kind it is cell-based, humains. The procedure:
L'évaluation de la cytotoxicité des complexes selon l'invention par test MTT sur la lignée cellulaire Thp1 (lignée cellulaire de monocytes humains) a été réalisée selon Mosmann avec de légères modifications. En bref, les cellules (0,77.10^5 cellules/ml) dans 200 µL du milieu complet [RPMI 1640 supplémenté avec 10% de sérum de veau fœtal (FCS), 2 mM de L-glutamine et des antibiotiques (100 U/ml) pénicilline et 100 µg/ml de streptomycine)]+ PMA (50 ng/ml) ont été ensemencées dans chaque puits de plaques à 96 puits et incubées à 37°C sous atmosphère humidifiée à 5% de CO2 avec 95% d'air. Après une incubation de 96 h, les plaques ont été lavées 3 fois avec du milieu et 100 µl de milieu ont été ajoutés. Diverses concentrations et contrôles appropriés ont ensuite été ajoutés (100 µl) et les plaques ont été incubées pendant 72 h à 37°C.
Chaque puits a ensuite été examiné au microscope pour détecter la formation possible de précipité avant l'aspiration du milieu. Une solution de MTT (0,5 mg/ml dans du RPMI, 100 µl) a ensuite été ajoutée à chaque puits. Les cellules ont été incubées pendant 2 h à 37°C. La solution de MTT a ensuite été éliminée et du DMSO (100 µl) a été ajouté pour dissoudre les cristaux de formazan résultants. Les plaques ont été secouées vigoureusement (300 tr/min) pendant 5 min.
L'absorbance a été mesurée à 570 nm avec un spectrophotomètre pour microplaques. Le DMSO a été utilisé comme blanc et la doxorubicine (Sigma Aldrich) comme contrôle positif. Les CC50 ont été calculés par analyse de régression non linéaire traitée sur des courbes dose-réponse, à l'aide du logiciel TableCurve 2D V5.
(Formazan colour is commonly taken as a measure of viable cells.)

Series [2] concerns amastigotes axéniques de L. infantum. Kind of series: Anti-leishmanial activity on axenic amastigotes of L. infantum (luciferase luminescence). As to conditions: for IC50: Leishmania infantum, mean of three independent experiments.

Where two headings read alike, the source gives them in different places.

Usually CC50 stands for the concentration that lowers cell viability or growth by half. Regarding `C[C@@H]1[C@H](O)[C@@H](C)/C=C/C=C/C=C/C=C/C=C/C=C/C=C/[C@H](O[C@@H]2O[C@H](C)[C@@H](O)[C@H](N)[C@@H]2O)C[C@@H]2O[C@](O)(C[C@@H](O)C[C@@H](O)[C@H](O)CC[C@@H](O)C[C@@H](O)CC(=O)O[C@H]1C)C[C@H](O)[C@H]2C(=O)O` [Amphotéricine B, reference compound], the CC50 in series [1] (Tableau 3, separate experiments, mean of three independent experiments, read-out: Thp1 CC50) is 13.1 µM; in series [1] (read-out: CC50 sur la lignée cellulaire humaine Thp1) it was 10.5 µM. For the same compound, the IC50 in series [2] (read-out: Amastigotes axéniques de L. infantum CI50, Tableau 2) is 0.075 µM; in series [2] (read-out: Amastigotes axéniques de L. infantum CI50, Tableau 3, separate experiments) it was 0.06 µM. Moreover, the “Indice de sélectivité CC50/IC50 SI” value in series [2] (Tableau 2, CC50 Thp1 / CI50 axenic amastigotes of L. infantum) is listed as 139,87; in series [2] (Tableau 3, separate experiments, CC50 Thp1 / CI50 axenic amastigotes), 218,83.
